Measured values published in ChEMBL document CHEMBL5506012, “Targeting Myeloid Leukemia-1 in Cancer Therapy: Advances and Directions” (J Med Chem, 2024).

Assays:
[1] = molecular target: T1, Induced myeloid leukemia cell differentiation protein Mcl-1 (Homo sapiens, UniProt Q07820); experiment: Inhibition of human recombinant Mcl-1 by Surface Plasmon Resonance assay
[2] = molecular target: T1, Induced myeloid leukemia cell differentiation protein Mcl-1; experiment: Binding affinity to N-terminal His-tagged human recombinant Mcl-1 (172 to 327 residues) expressed in Escherichia coli BL21 (DE3) assessed as inhibition constant
[3] = molecular target: T2, Apoptosis regulator Bcl-2 (Homo sapiens, UniProt P10415); experiment: Binding affinity to human Bcl-2 assessed as inhibition constant SPR assay
OCI-AML-5 = experiment: Antiproliferative activity against human OCI-AML5 cells assessed as reduction in cell viability incubated for 48 hrs by MTT assay; details: OCI-AML-5, 48 h
NCI-H929 [4] = experiment: Antiproliferative activity against human NCI-H929 cells assessed as reduction in cell viability; format: functional, cell-based
MV4-11 [5] = experiment: animal or person; details: Mus musculus, MV4-11, po, 120 h, read-out: TGI
Description: Antitumor activity against human MV4-11 cells xenografted in C57BL/6 mouse assessed as tumor growth inhibition at 12.5 mg/kg, po administered once daily for 5 days relative to control

HL-60 = experiment: Growth inhibition of human HL-60 cells incubated for 48 hrs by cell-titer Glo reagent based assay; format: functional
MOLM-13 [6] = experiment: Growth inhibition of human MOLM-13 cells incubated for 48 hrs by cell-titer Glo reagent based assay; format: functional
THP-1 = experiment: Growth inhibition of human THP-1 cells incubated for 48 hrs by cell-titer Glo reagent based assay; format: functional
MV4-11 [7] = experiment: Antitumor activity against human MV4-11 cells xenografted in SCID mouse assessed as inhibition of tumor growth at 100 mg/kg administered for 14 days consecutively relative to control; format: functional; details: MV4-11, 336 h, time 14 day, read-out: TGI
BC = experiment: Growth inhibition of human BC cells; format: functional
HCC1187 = experiment: Growth inhibition of human HCC1187
MV4-11 [8] = experiment: cells; details: Homo sapiens, MV4-11, 48 h
Description: Growth inhibition of human MV4-11 cells incubated for 48 hrs by cell-titer Glo reagent based assay

[9] = molecular target: T1, Induced myeloid leukemia cell differentiation protein Mcl-1; experiment: Binding affinity to Mcl-1 (unknown origin) assessed as inhibition constant by Fluorescence polarization assay
[10] = molecular target: T1, Induced myeloid leukemia cell differentiation protein Mcl-1; experiment: Binding affinity to human Mcl-1 assessed as dissociation constant by Surface Plasmon Resonance assay
NCI-H522 = experiment: Antiproliferative activity against human NCI-H522 cells assessed as reduction in cell viability incubated for 48 hrs by MTT assay; format: functional, cell-based; details: NCI-H522, 48 h
SK-BR-3 = experiment: Antiproliferative activity against human SK-BR-3 cells assessed as reduction in cell viability incubated for 48 hrs by MTT assay; format: functional, cell-based; details: SK-BR-3, 48 h
SK-MEL-2 = experiment: Antiproliferative activity against human SK-MEL-2 cells assessed as reduction in cell viability incubated for 48 hrs by MTT assay; format: functional, cell-based; details: SK-MEL-2, 48 h
NCI-H929 [11] = experiment: Antitumor activity against human NCI-H929 cells xenografted in mouse model assessed as tumor growth inhibition at 25 mg/kg administered for 5 days relative to control; format: functional; details: NCI-H929, 120 h, time 5 day, read-out: TGI
AMO1 [12] = experiment: Antitumor activity against human AMO1 cells xenografted in mouse model assessed as tumor growth inhibition at 25 mg/kg administered for 5 days relative to control; format: functional; details: AMO1, 120 h, time 5 day, read-out: TGI
AMO1 [13] = experiment: Antitumor activity against human AMO1 cells xenografted in mouse model assessed as tumor growth inhibition at 6.25 mg/kg administered for 5 days relative to control; format: functional; details: AMO1, 120 h, time 5 day, read-out: TGI
AMO1 [14] = experiment: Antiproliferative activity against human AMO1 cells assessed as reduction in cell viability; format: functional, cell-based
MV4-11 [15] = experiment: Antiproliferative activity against human MV4-11 cells assessed as reduction in cell viability; format: functional, cell-based
[16] = molecular target: T1, Induced myeloid leukemia cell differentiation protein Mcl-1; experiment: Binding affinity to human Mcl-1 assessed as inhibition constant
EOL1 = experiment: Induction of apoptosis in human EOL1 cells; format: functional, cell-based
MOLM-13 [17] = experiment: Induction of apoptosis in human MOLM-13 cells; format: functional, cell-based
MV4-11 [18] = experiment: Induction of apoptosis in human MV4-11 cells; format: functional, cell-based
SUD4 = experiment: Induction of apoptosis in human SU-DHL-4 cells; format: functional, cell-based
MOLP-8 [19] = experiment: Induction of apoptosis in human MOLP8 cells; format: functional, cell-based
Bcl-2-like protein 1 [20] = molecular target: T3, Bcl-2-like protein 1 (Homo sapiens, UniProt Q07817); experiment: Binding affinity to Bcl-XL (unknown origin) assessed as inhibition constant by fluorescence polarization assay
[21] = molecular target: T2, Apoptosis regulator Bcl-2; experiment: Binding affinity to Bcl-2 (unknown origin) expressed in Escherichia coli BL21 (DE3) assessed as inhibition constant by fluorescence polarization assay
MOLM-13 [22] = experiment: Growth inhibition of human MOLM-13 cells by cell-titer Glo reagent based assay; format: functional
[23] = molecular target: T1, Induced myeloid leukemia cell differentiation protein Mcl-1; experiment: Binding affinity to Mcl-1 (unknown origin) assessed as inhibition constant
[24] = molecular target: T1, Induced myeloid leukemia cell differentiation protein Mcl-1; experiment: Inhibition of N-terminal GST-tagged human Mcl-1expressed in Escherichia coli by TR-FRET analysis
[25] = molecular target: T1, Induced myeloid leukemia cell differentiation protein Mcl-1; experiment: Inhibition of Mcl-1 (unknown origin)
[26] = molecular target: T2, Apoptosis regulator Bcl-2; experiment: Binding affinity to Bcl-2 (unknown origin) assessed as inhibition constant
Bcl-2-like protein 1 [27] = molecular target: T3, Bcl-2-like protein 1; experiment: Binding affinity to Bcl-xL (unknown origin) assessed as inhibition constant
Bcl-2-like protein 2 = Bcl-2-like protein 2 (Homo sapiens, UniProt Q92843); experiment: Binding affinity to Bcl-W (unknown origin) assessed as inhibition constant
Bcl-2-related protein A1 = Bcl-2-related protein A1 (Homo sapiens, UniProt Q16548); experiment: Binding affinity to Bfl-1 (unknown origin) assessed as inhibition constant
AMO1 [28] = experiment: Antitumor activity against human AMO1 cells xenografted in mouse model assessed as tumor growth inhibition at 12.5 mg/kg administered for 20 days relative to control; format: functional; details: AMO1, 480 h, time 20 day, read-out: TGI
MOLP-8 [29] = experiment: Antiproliferative activity against human MOLP8 cells assessed as reduction in cell viability incubated for 24 hrs by Celltiter-Glo reagent based assay; details: MOLP-8, 24 h
MV4-11 [30] = experiment: Antiproliferative activity against human MV4-11 cells assessed as reduction in cell viability incubated for 24 hrs by Celltiter-Glo reagent based assay; details: MV4-11, 24 h
NCI-H23 = experiment: Antiproliferative activity against human NCI-H23 cells assessed as reduction in cell viability incubated for 24 hrs by Celltiter-Glo reagent based assay; format: functional; details: NCI-H23, 24 h
[31] = Oral bioavailability in CD-1 mouse at 10 mg/kg, […]; format: ADME, organism-based; details: in vivo

T1 sequence (Q07820 whole entry, the tested form may be a part): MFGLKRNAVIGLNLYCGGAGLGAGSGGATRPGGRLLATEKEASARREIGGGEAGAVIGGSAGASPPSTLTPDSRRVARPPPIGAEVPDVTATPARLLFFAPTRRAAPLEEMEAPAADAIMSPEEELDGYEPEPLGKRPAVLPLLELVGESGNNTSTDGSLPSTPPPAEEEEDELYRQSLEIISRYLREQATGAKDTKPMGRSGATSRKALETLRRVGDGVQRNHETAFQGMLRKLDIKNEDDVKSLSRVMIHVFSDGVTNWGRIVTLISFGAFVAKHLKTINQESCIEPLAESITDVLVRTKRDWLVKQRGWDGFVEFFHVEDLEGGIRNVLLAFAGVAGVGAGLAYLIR
T2 sequence (P10415 whole entry): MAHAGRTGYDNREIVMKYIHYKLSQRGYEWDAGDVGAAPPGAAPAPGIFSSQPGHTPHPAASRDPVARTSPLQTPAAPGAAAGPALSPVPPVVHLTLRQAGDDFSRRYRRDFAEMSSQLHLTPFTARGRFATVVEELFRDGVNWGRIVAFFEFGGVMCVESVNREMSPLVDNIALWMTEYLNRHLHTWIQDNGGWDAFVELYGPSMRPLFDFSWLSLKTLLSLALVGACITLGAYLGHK
T3 sequence (Q07817 whole entry): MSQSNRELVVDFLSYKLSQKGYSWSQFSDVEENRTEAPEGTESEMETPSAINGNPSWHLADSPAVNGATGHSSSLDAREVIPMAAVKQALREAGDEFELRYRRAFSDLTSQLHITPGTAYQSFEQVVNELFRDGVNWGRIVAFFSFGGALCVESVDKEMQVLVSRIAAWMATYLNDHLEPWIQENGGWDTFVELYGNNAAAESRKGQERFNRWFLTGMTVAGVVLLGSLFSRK
Chain of Bcl-2-like protein 2 (Q92843 whole entry): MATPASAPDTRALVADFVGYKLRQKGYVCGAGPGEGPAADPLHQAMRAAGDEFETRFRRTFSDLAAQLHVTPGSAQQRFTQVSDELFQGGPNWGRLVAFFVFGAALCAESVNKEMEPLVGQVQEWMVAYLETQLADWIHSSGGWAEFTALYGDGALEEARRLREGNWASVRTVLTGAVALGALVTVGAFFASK
Chain of Bcl-2-related protein A1 (Q16548 whole entry): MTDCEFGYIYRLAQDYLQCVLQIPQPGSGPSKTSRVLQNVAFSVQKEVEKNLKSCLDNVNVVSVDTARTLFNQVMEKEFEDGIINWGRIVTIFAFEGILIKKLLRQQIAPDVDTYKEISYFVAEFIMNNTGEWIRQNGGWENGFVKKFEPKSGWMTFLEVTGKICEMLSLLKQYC

## O=C(O)CSc1cc(NS(=O)(=O)c2ccc(Br)cc2)c2ccccc2c1O
[1]
  IC50: 310 nM

## Cc1cc(OCCC(=O)O)cc(C)c1Cl
[2]
  Ki: 68 µM

## Cc1c(-c2c(-c3ccc(F)o3)sc3ncnc(O[C@H](Cc4ccccc4OCc4ccnn4CC(F)(F)F)C(=O)O)c23)ccc(OCCN2CCN(C)CC2)c1Cl
[3]
  Ki: > 10 µM
OCI-AML-5
  IC50: 4 nM
NCI-H929 [4]
  EC50: < 10 nM
MV4-11 [5]
  inhibition in vivo at 12.5 mg/kg: 86%

## Cc1cc(OCCCc2c3n(c4c(-c5c(C)nn(C)c5C)c(Cl)ccc24)[C@H](C)CN(c2cn(C)c4ccc(C(=O)O)cc24)C3=O)cc(C)c1Cl
HL-60
  GI50: 3.71 µM
MOLM-13 [6]
  GI50: 210 nM
THP-1
  GI50: 490 nM
MV4-11 [7]
  inhibition in vivo at 100 mg/kg: 60%
BC
  GI50: 1300 nM
HCC1187
  GI50: 2100 nM
MV4-11 [8]
  GI50: 180 nM

## CCc1sc2ncnc(N[C@@H](C)C(=O)O)c2c1CC
[9]
  Ki: 1.2 nM
[10]
  Kd: 0.19 nM

## COc1ccccc1-c1nccc(COc2ccccc2C[C@H](Oc2ncnc3sc(-c4ccc(F)cc4)c(-c4ccc(OCCN5CCN(C)CC5)c(Cl)c4C)c23)C(=O)O)n1
NCI-H522
  IC50: < 100 nM
SK-BR-3
  IC50: < 100 nM
SK-MEL-2
  IC50: < 100 nM
NCI-H929 [11]
  inhibition in vivo at 25 mg/kg: 103%
AMO1 [12]
  inhibition in vivo at 25 mg/kg: 114%
AMO1 [13]
  inhibition in vivo at 6.25 mg/kg: 190%
AMO1 [14]
  EC50: 2.06 nM
NCI-H929 [4]
  EC50: 4.75 nM
MV4-11 [15]
  EC50: 10.9 nM

## COCCOCCn1nc(C)c2c1CSCc1cc(n(C)n1)CCc1cc(c3ccccc3c1)OCCCn1c(C(=O)O)c(C)c3c-2c(Cl)ccc31
[16]
  Ki: 6 pM
EOL1
  AC50: 2.1 nM
MOLM-13 [17]
  AC50: 10 nM
MV4-11 [18]
  AC50: 14 nM
SUD4
  AC50: 21 nM
MOLP-8 [19]
  AC50: 8.7 nM
Bcl-2-like protein 1 [20]
  Ki: 5 µM
[21]
  Ki: 3.75 µM
MOLM-13 [22]
  GI50: 10 nM

## CCC1CC/C=C/C(O)C2CCC2CN2CC3(CCc4cc(Cl)ccc43)COc3ccc(cc32)C(=O)NS1(=O)=O (stereo unspecified)
[23]
  Ki: 0.05 nM

## Cc1cc(SCc2nn(C)c(C)c2-c2cccc3c(CCCOc4cccc5ccccc45)c(C(=O)O)[nH]c23)nn1C
[24]
  IC50: 42 nM

## O=C(NS(=O)(=O)Cc1ccccc1)c1ccc2c(c1)N(CC1CCC1)CC(c1ccc(Cl)cc1Cl)O2 (stereo unspecified)
[25]
  IC50: 300 nM

## Cc1c(Cl)c2c(Cl)c(C)c1-c1c(-c3ccc(F)cc3)sc3ncnc(c13)O[C@@H](C(=O)O)Cc1cc(ccc1OCc1ccnc(-c3ccc(OC[C@@H]4COCCO4)cc3)n1)OC[C@@H](CN1CCN(C)CC1)O2
[23]
  Ki: < 0.01 nM
[26]
  Ki: 599 nM
Bcl-2-like protein 1 [27]
  Ki: > 660 nM
Bcl-2-like protein 2
  Ki: > 468 nM
Bcl-2-related protein A1
  Ki: > 468 nM
AMO1 [28]
  inhibition in vivo at 12.5 mg/kg: 46%
AMO1 [14]
  EC50: 0.16 nM
NCI-H929 [4]
  EC50: 0.47 nM
MV4-11 [15]
  EC50: 3.91 nM

## Cc1c2c(nn1C)CSCc1cc(n(C)n1)CCc1cc(c3ccccc3c1)OCCCc1c(C(=O)O)[nH]c3c-2cccc13
[24]
  IC50: 19 nM

## Cc1c2c(nn1C)CSCc1cc(n(C)n1)CSc1cc(c3ccccc3c1)OCCCc1c(C(=O)O)n(C)c3c-2c(Cl)ccc13 [AZD-5991]
MOLP-8 [29]
  EC50: 33 nM
MV4-11 [30]
  EC50: 24 nM
NCI-H23
  EC50: 190 nM
AMO1 [14]
  EC50: 22.9 nM
NCI-H929 [4]
  EC50: 31.7 nM
MV4-11 [15]
  EC50: 34.9 nM

## CO[C@]1(CN2CCN3CCCC[C@@H]3C2)/C=C/C[C@H](C)[C@@H](C)S(=O)(=O)NC(=O)c2ccc3c(c2)N(C[C@@H]2CC[C@H]21)C[C@@]1(CCCc2cc(Cl)ccc21)CO3 [MURIZATOCLAX]
AMO1 [14]
  EC50: 13.5 nM
NCI-H929 [4]
  EC50: 13 nM
MV4-11 [15]
  EC50: 43.6 nM

## CC1(C)CCC(c2ccc(Cl)cc2)=C(CN2CCN(c3ccc(C(=O)NS(=O)(=O)c4ccc(N[C@H](CCN5CCOCC5)CSc5ccccc5)c(S(=O)(=O)C(F)(F)F)c4)cc3)CC2)C1 [NAVITOCLAX]
[31]
  bioavailability: 57%
